Source: patent US20070049593A1 (priority 2004, published 2007)
Counter-ions that a name gives are not always drawn.

Biological target: T1, HCV polymerase (Hepatitis C virus genotype 1b, UniProt P26663)
T1 construct: a region encoding NS5B (J Virol 1991 March, 65(3), 1105-13, 544 amino acids after deletion of 47 amino acids on the C-terminal); 6xHis (C); made in house; host or cells: Escherichia coli
Assay: biochemical
Set-up: species or system HCV BK strain
Outline: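 Recombinant HCV BK-strain NS5B (C-terminal 47 aa deleted, His6-tagged, E. coli), 0.5 μg/ml, run with 5 μg/ml in vitro-transcribed RNA template (polyU/3′X), ATP/GTP/CTP 50 μM, UTP 2 μM plus [3H]UTP, pH 7.5, 25° C, 90 min. TCA-precipitated RNA counted by scintillation; IC50 from activity with vs without compound.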

T1 sequence (P26663 2420-2963): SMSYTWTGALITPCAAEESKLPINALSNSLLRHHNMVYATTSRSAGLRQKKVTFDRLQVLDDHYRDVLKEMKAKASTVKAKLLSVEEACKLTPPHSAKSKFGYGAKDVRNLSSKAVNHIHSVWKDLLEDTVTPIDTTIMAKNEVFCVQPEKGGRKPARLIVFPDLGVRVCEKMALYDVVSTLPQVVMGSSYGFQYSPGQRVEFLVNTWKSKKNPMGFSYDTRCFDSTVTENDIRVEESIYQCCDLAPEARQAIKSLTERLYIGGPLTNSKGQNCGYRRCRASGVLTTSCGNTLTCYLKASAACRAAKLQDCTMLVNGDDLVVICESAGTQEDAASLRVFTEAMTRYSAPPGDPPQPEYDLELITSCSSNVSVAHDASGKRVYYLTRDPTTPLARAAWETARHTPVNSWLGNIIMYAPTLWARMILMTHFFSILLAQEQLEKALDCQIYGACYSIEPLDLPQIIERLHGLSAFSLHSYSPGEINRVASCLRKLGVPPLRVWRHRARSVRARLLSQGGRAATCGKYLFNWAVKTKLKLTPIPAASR

SMILES | IC50 [nM]
COc1ccc2c(c1)OCCn1c-2c(C2CCCCC2)c2ccc(C(=O)NC(C)(C)c3ncc(-c4ccc(/C=C/C(=O)O)cc4)[nH]3)cc21 [Example 2-548, (E)-3-[4-(2-{1-[(12-cyclohexyl-3-methoxy-6,7-dihydro-5-oxa-7a-azadibenzo[a,e]azulene-9-carbonyl)amino]-1-methylethyl}-3H-imidazol-4-yl)phenyl]acrylic acid] | < 100
O=C(CN1CCCCC1)Nc1ccccc1-c1cccc2c1OCCn1c-2c(C2CCCCC2)c2ccc(C(=O)O)cc21 [Example 2-549, 12-cyclohexyl-4-{2-[2-(piperidin-1-yl)acetylamino]phenyl}-6,7-dihydro-5-oxa-7a-azadibenzo[a,e]azulene-9-carboxylic acid] | < 100
COc1ccc2c(c1)OCCn1c-2c(C2CCCCC2)c2ccc(C(=O)NC3(C(=O)Nc4cccc(/C=C/C(=O)O)c4)CCC3)cc21 [Example 2-550, (E)-3-[3-({1-[(12-cyclohexyl-3-methoxy-6,7-dihydro-5-oxa-7a-azadibenzo[a,e]azulene-9-carbonyl)amino]cyclobutanecarbonyl}amino)phenyl]acrylic acid] | < 100
CCOc1ccc2c(c1)OCCn1c-2c(C2CCCCC2)c2ccc(C(=O)NC3(C(=O)Nc4cccc(/C=C/C(=O)O)c4)CCC3)cc21 [Example 2-551, (E)-3-[3-({1-[(12-cyclohexyl-3-ethoxy-6,7-dihydro-5-oxa-7a-azadibenzo[a,e]azulene-9-carbonyl)amino]cyclobutanecarbonyl}amino)phenyl]acrylic acid] | < 100
CCOc1ccc2c(c1)OCCn1c-2c(C2CCCCC2)c2ccc(C(=O)NC3(C(=O)Nc4ccc(/C=C/C(=O)O)cc4OC)CCC3)cc21 [Example 2-552, (E)-3-[4-({1-[(12-cyclohexyl-3-ethoxy-6,7-dihydro-5-oxa-7a-azadibenzo[a,e]azulene-9-carbonyl)amino]cyclobutanecarbonyl}amino)-3-methoxyphenyl]acrylic acid] | < 100
O=C(O)c1ccc2c(C3CCCCC3)c3n(c2c1)CCOc1c(-c2ccccc2CCN2CCCCC2)cccc1-3 [Example 2-553, 12-cyclohexyl-4-{2-[2-(piperidin-1-yl)ethyl]phenyl}-6,7-dihydro-5-oxa-7a-azadibenzo[a,e]azulene-9-carboxylic acid monohydrochloride] | < 100
O=C(O)c1ccc2c(C3CCCCC3)c3n(c2c1)CCOc1c(-c2ccccc2NCCN2CCCCC2)cccc1-3 [Example 2-554, 12-cyclohexyl-4-{2-[2-(piperidin-1-yl)ethylamino]phenyl}-6,7-dihydro-5-oxa-7a-azadibenzo[a,e]azulene-9-carboxylic acid dihydrochloride] | < 100
CC(C)Oc1ccc2c(c1)OCCn1c-2c(C2CCCCC2)c2ccc(C(=O)O)cc21 [Example 2-555, 12-cyclohexyl-3-isopropoxy-6,7-dihydro-5-oxa-7a-azadibenzo[a,e]azulene-9-carboxylic acid] | < 100
CC(C)Oc1ccc2c(c1)OCCn1c-2c(C2CCCCC2)c2ccc(C(=O)NC3(C(=O)Nc4ccc(/C=C/C(=O)O)cc4)CCC3)cc21 [Example 2-556, (E)-3-[4-({1-[(12-cyclohexyl-3-isopropoxy-6,7-dihydro-5-oxa-7a-azadibenzo[a,e]azulene-9-carbonyl)amino]cyclobutanecarbonyl}amino)phenyl]acrylic acid] | < 100
CN(C)C(=O)C1Cn2c(c(C3CCCCC3)c3ccc(C(=O)O)cc32)-c2ccccc2O1 (stereo not drawn) [Example 3-4, 12-cyclohexyl-6-dimethylcarbamoyl-6,7-dihydro-5-oxa-7a-azadibenzo[a,e]azulene-9-carboxylic acid] | < 100
O=C(O)c1ccc2c(C3CCCCC3)c3n(c2c1)COc1ccccc1-3 [Example 4-2, 11-cyclohexyl-5-oxa-6a-azabenzo[a]fluorene-8-carboxylic acid] | 100 to 1000
O=C(O)c1ccc2c(C3CCCCC3)c3n(c2c1)CCCc1ccccc1-3 [Example 5-2, 13-cyclohexyl-6,7-dihydro-5H-benzo[3,4]azepino[1,2-a]indole-10-carboxylic acid] | < 100
O=C(O)c1ccc2c(C3CCCCC3)c3n(c2c1)Cc1ccccc1-3 [Example 5-3, 11-cyclohexyl-6H-isoindolo[2,1-a]indole-3-carboxylic acid] | 100 to 1000
O=C(O)c1ccc2c(C3CCCCC3)c3n(c2c1)CCc1ccccc1-3 [Example 5-4, 12-cyclohexyl-5,6-dihydroindolo[2,1-a]isoquinoline-9-carboxylic acid] | 100 to 1000
O=C(O)c1ccc2c(C3CCCCC3)c3n(c2c1)C(O)c1ccccc1-3 (stereo not drawn) [Example 5-6, 11-cyclohexyl-6-hydroxy-6H-isoindolo[2,1-a]indole-3-carboxylic acid] | 100 to 1000
O=C(O)c1ccc2c(C3CCCCC3)c3n(c2c1)CCCn1cccc1-3 [Example 6-2, 13-cyclohexyl-6,7-dihydro-5H-pyrrolo[2′,1′:3,4][1,4]diazepino[1,2-a]indole-10-carboxylic acid] | 100 to 1000
O=C(O)c1ccc2c(C3CCCCC3)c3n(c2n1)CCOc1cc(OCc2cc(N4CCCC4=O)ccc2N2CCOCC2)ccc1-3 [Example 7-4, 12-cyclohexyl-3-[2-(morpholin-4-yl)-5-(2-oxopyrrolidin-1-yl)benzyloxy]-6,7-dihydro-5-oxa-7a,8-diazadibenzo[a,e]azulene-9-carboxylic acid dihydrochloride] | < 100
CS(=O)(=O)c1ccc(N2CCOCC2)c(COc2ccc3c(c2)OCCn2c-3c(C3CCCCC3)c3ccc(C(=O)O)nc32)c1 [Example 7-5, 12-cyclohexyl-3-[5-methanesulfonyl-2-(morpholin-4-yl)benzyloxy]-6,7-dihydro-5-oxa-7a,8-diazadibenzo[a,e]azulene-9-carboxylic acid monohydrochloride] | < 100
CC(=O)N(C)c1ccc(N2CCOCC2)c(COc2ccc3c(c2)OCCn2c-3c(C3CCCCC3)c3ccc(C(=O)O)nc32)c1 [Example 7-6, 3-[5-(N-acetyl-N-methylamino)-2-(morpholin-4-yl)benzyloxy]-12-cyclohexyl-6,7-dihydro-5-oxa-7a,8-diazadibenzo[a,e]azulene-9-carboxylic acid dihydrochloride] | < 100
CS(=O)(=O)N1CCN(c2ccc(N3CCCC3=O)cc2COc2ccc3c(c2)OCCn2c-3c(C3CCCCC3)c3ccc(C(=O)O)nc32)CC1 [Example 7-7, 12-cyclohexyl-3-[2-(4-methanesulfonylpiperazin-1-yl)-5-(2-oxopyrrolidin-1-yl)benzyloxy]-6,7-dihydro-5-oxa-7a,8-diazadibenzo[a,e]azulene-9-carboxylic acid dihydrochloride] | < 100
O=C(O)c1ccc2c(C3CCCCC3)c3n(c2n1)CCOc1cc(OCc2ccccc2)ccc1-3 [Example 7-8, 3-benzyloxy-12-cyclohexyl-6,7-dihydro-5-oxa-7a,8-diazadibenzo[a,e]azulene-9-carboxylic acid] | < 100
COc1ccc2c(c1)OCCn1c-2c(C2CCCCC2)c2ccc(C(=O)O)nc21 [Example 7-9, 12-cyclohexyl-3-methoxy-6,7-dihydro-5-oxa-7a,8-diazadibenzo[a,e]azulene-9-carboxylic acid] | < 100
COc1ccc2c(c1)OCCn1c-2c(C2CCCCC2)c2ccc(C(=O)NC3(C(=O)Nc4ccc(/C=C/C(=O)O)cc4)CCC3)nc21 [Example 7-10, (E)-3-[4-({1-[(12-cyclohexyl-3-methoxy-6,7-dihydro-5-oxa-7a,8-diazadibenzo[a,e]azulene-9-carbonyl)amino]cyclobutanecarbonyl}amino)phenyl]acrylic acid] | < 100
O=C(O)c1ccc2c(C3CCCCC3)c3n(c2n1)CCN(CC(=O)N1CCOCC1)c1ccccc1-3 [Example 8-4, 12-cyclohexyl-5-[2-oxo-2-(morpholin-4-yl)ethyl]-6,7-dihydro-5H-5,7a,8-triazadibenzo[a,e]azulene-9-carboxylic acid dihydrochloride] | < 100
O=C(O)c1ccc2c(C3CCCCC3)c3n(c2n1)CCN(CCN1CCCCC1)c1cc(Cl)ccc1-3 [Example 8-5, 3-chloro-12-cyclohexyl-5-(2-piperidin-1-ylethyl)-6,7-dihydro-5H-5,7a,8-triazadibenzo[a,e]azulene-9-carboxylic acid trihydrochloride] | < 100
CCN1CCN(CCN2CCn3c(c(C4CCCCC4)c4ccc(C(=O)O)nc43)-c3ccc(Cl)cc32)CC1 [Example 8-6, 3-chloro-12-cyclohexyl-5-[2-(4-ethylpiperazin-1-yl)ethyl]-6,7-dihydro-5H-5,7a,8-triazadibenzo[a,e]azulene-9-carboxylic acid trihydrochloride] | < 100
O=C(O)c1ccc2c(C3CCCCC3)c3n(c2c1)CCCN(CCN1CCCCC1)c1cc(Cl)ccc1-3 [Example 8-7, 3-chloro-14-cyclohexyl-5-[2-(piperidin-1-yl)ethyl]-5,6,7,8-tetrahydrobenzo[6,7][1,5]diazocino[8,1-a]indole-11-carboxylic acid dihydrochloride] | < 100
Cc1ccc2c(c1)N(C)CCn1c-2c(C2CCCCC2)c2ccc(C(=O)O)nc21 [Example 8-8, 12-cyclohexyl-3,5-dimethyl-6,7-dihydro-5H-5,7a,8-triazadibenzo[a,e]azulene-9-carboxylic acid] | 100 to 1000
Cc1ccc2c(c1)N(C)CCn1c-2c(C2CCCCC2)c2ccc(C(=O)NC3(C(=O)Nc4ccc(/C=C/C(=O)O)cc4)CCC3)nc21 [Example 8-9, (E)-3-[4-({1-[(12-cyclohexyl-3,5-dimethyl-6,7-dihydro-5H-5,7a,8-triazadibenzo[a,e]azulene-9-carbonyl)amino]cyclobutanecarbonyl}amino)phenyl]acrylic acid] | < 100
O=C(O)c1ccc2c(C3CCCCC3)c3n(c2c1)CCOc1ccccc1-3 [Example 9-2, 12-cyclohexyl-6,7-dihydro-5-oxa-7a-azadibenzo[a,e]azulene-9-carboxylic acid] | < 100
